Like-named read-outs stand apart in the source and are kept apart here.
How the values were obtained:
[1] = biological target: wild type NS5B Genotype 1b (Hepatitis C virus genotype 1b (isolate Con1) (HCV), UniProt Q9WMX2); assay: HCV NS5B polymerase reaction, wild type; type: biochemical; settings: Table 5, nucleoside triphosphates
[2] = biological target: S282T NS5B Genotype 1b (Hepatitis C virus genotype 1b (isolate Con1) (HCV), UniProt Q9WMX2, S2701T); assay: HCV NS5B polymerase reaction, S282T mutant; type: biochemical; settings: Table 5, nucleoside triphosphates
Sequence of S282T NS5B Genotype 1b (Q9WMX2 2420-3010 S2701T): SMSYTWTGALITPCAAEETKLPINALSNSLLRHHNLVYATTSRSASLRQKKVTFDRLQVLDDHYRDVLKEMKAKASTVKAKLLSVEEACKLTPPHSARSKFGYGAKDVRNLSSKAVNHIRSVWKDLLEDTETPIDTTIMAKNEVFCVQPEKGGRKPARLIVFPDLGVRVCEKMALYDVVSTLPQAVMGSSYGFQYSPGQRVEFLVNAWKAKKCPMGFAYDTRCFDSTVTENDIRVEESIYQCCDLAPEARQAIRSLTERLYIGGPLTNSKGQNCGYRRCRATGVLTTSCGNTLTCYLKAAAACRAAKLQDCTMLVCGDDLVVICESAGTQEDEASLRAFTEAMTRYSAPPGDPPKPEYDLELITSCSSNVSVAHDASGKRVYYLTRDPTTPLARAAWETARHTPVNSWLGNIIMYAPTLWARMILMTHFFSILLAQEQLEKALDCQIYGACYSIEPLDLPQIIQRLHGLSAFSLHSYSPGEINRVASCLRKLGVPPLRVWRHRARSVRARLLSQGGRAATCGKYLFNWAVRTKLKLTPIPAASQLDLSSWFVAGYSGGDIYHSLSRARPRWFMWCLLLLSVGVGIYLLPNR
Description: The HCV NS5B reaction was performed in a 20 μL mixture containing varying concentrations of the test compound, 1 μM of all four natural ribonucleotides, [α-^32P]UTP, 20 ng/μL of genotype 1b (−) IRES RNA template, 1 unit/μL of SUPERase•In (Ambion, Austin, Tex.), 40 ng/μL of wild type or S282T NS5B Genotype 1b, 1 mM MgCl2, 0.75 mM MnCl2, and 2 mM DTT in 50 mM Hepes buffer (pH 7.5). The reaction was quenched by adding 80 μL of stop solution (12.5 mM EDTA, 2.25 M NaCl, and 225 mM sodium citrate) after incubating at 27° C. for 30 minutes. The radioactive RNA products were separated from unreacted substrates by passing the quenched reaction mixture through a Hybond N+ membrane (GE Healthcare, Piscataway, N.J.) using a dot-blot apparatus. The RNA products were retained on the membrane and the free nucleotides were washed out. The membrane was washed 4 times with a solution containing 0.6 M NaCl and 60 mM sodium citrate. After rinsing the membrane with water followed by ethanol, the membrane was exposed to a phosphorscreen and the products were visualized and quantified using a phosphorimager. The IC50 values were calculated using GraFit program version 5 (Erithacus Software, Horley, Surrey, UK). All the reactions were done in duplicate and the results were reported as IC50±standard error.

[3] = system: HCV replicon; assay: HCV replicon assay (Clone A cells and ET-lunet cells, HCV RNA by real time PCR); type: cell-based, hepatitis C virus; settings: Table 3, HCV 1b replicon; for EC50: read-out: EC50, anti-HCV 1b activity; for EC90: read-out: EC90, anti-HCV 1b activity
Description: HCV replicon assay. HCV replicon assays using Clone A cells and ET-lunet cells were performed as described previously. L. J. Stuyver et al. Antimicrob. Agents Chemother. 2004, 48, 651-654. Briefly, Clone A cells and ET-lunet cells were seeded at a density of 1500 and 3000 cells per well in a 96-well plate, respectively. Test compounds serially diluted in culture medium without G418 were added to cells. Plates were incubated at 37° C. in a 5% CO2 atmosphere for 4 days. Inhibition of HCV RNA replication was determined by quantitative real time PCR. See, e.g., L. J. Stuyver et al. Antiviral Chem. Chemother. 2006, 17, 79-87.
To express the antiviral effectiveness of a compound, the threshold RT-PCR cycle of the test compound was subtracted from the average threshold RT-PCR cycle of the no-drug control (ΔCtHCV). A ΔCt of 3.3 equals a 1-log 10 reduction (equal to the 90% effective concentration [EC90]) in replicon RNA levels. The cytotoxicity of the test compound could also be expressed by calculating the ΔCtrRNA values. The ΔΔCt specificity parameter could then be introduced (ΔCtHCV-ΔCtrRNA), in which the levels of HCV RNA are normalized for the rRNA levels and calibrated against the no-drug control.

[4] = system: Huh7, HepG2, BxPC3, or CEM cells; assay: Cell cytotoxicity assay (MTS); type: cell-based; settings: Table 3; cell line not stated
Description: (§1) Cell cytotoxicity assays. Each compound (serially diluted from 100 μM) was added to Huh7 (2×10^3 cells/well), HepG2 (2×10^3 cells/well), BxPC3 (2×10^3 cells/well), or CEM (5×10^3 cells/well) cells and allowed to incubate for 8 days at 37° C. A medium only control was used to determine the minimum absorbance value […]. At the end of the growth period, MTS dye from the CellTiter 96 Aqueous One Solution Cell Proliferation Assay kit (Promega) was added to each well and the plate was incubated for an additional 2 hours. The absorbance at 490 nm was read with a Victor3 plate reader (Perkin Elmer) using the medium only control wells as blanks. The 50% inhibition value (CC50) was determined by comparing the absorbance in wells containing cells and test compound to untreated cell control wells.

[5] = system: Dengue 2 strain New Guinea C; assay: Dengue CPE assay; type: cell-based, Dengue virus 2; settings: Table 6, BHK-21 cells, 3 days, 50% cells surviving, read-out: EC50, activity against dengue virus
Description: Dengue CPE Assay. To measure cytopathic effect of Dengue virus 2, BHK-21 ([…], CCL-10 ATCC Manassas, Va.) cells were seeded at a density of 20,000 cells/well in a 96-well black/clear bottom plates (Becton Dickinson, Franklin Lakes, N.J.) one day prior to start of the assay and allowed to attach overnight in EMEM (ATCC Manassas, Va.) +10% FBS (Invitrogen, Carlsbad, Calif.) at 37° C. in a humidified 5% CO2 atmosphere. The next day, the medium was removed and the cells were infected with Dengue 2 strain New Guinea C (VR-1584, ATCC Manassas, Va.) at an MOI of 0.08 pfu/cell for two hours in 50 μL EMEM+2% FBS. For both the single point and dose response assays, compounds (2× concentration) were diluted in EMEM+2% FBS and 50 μL was added to infected cells without removing virus. Cells were incubated for 3 days at 37° C. in a humidified 5% CO2 atmosphere. The medium was aspirated and 50 μL of CellTiter-Glo (Promega, Madison, Wis.) was added to each well and read for 0.1 seconds on a Perkin Elmer Victor3 (Waltham, Mass.) plate reader. Percent survival was determined by subtracting the average value of infected control wells and normalizing to the non-infected wells. The effective concentration was calculated from the dose response data by forecasting 50% cells surviving with drug treatment.

[6] = Cytotoxicity reported with the dengue assay; type: cell-based; settings: Table 6; cell line not stated
[7] = Cell cytotoxicity assay (MTS); type: cell-based; settings: human; Table 3; cell line not stated; read-out: CC50
Description: as §1

Sequence of wild type NS5B Genotype 1b (Q9WMX2 2420-3010): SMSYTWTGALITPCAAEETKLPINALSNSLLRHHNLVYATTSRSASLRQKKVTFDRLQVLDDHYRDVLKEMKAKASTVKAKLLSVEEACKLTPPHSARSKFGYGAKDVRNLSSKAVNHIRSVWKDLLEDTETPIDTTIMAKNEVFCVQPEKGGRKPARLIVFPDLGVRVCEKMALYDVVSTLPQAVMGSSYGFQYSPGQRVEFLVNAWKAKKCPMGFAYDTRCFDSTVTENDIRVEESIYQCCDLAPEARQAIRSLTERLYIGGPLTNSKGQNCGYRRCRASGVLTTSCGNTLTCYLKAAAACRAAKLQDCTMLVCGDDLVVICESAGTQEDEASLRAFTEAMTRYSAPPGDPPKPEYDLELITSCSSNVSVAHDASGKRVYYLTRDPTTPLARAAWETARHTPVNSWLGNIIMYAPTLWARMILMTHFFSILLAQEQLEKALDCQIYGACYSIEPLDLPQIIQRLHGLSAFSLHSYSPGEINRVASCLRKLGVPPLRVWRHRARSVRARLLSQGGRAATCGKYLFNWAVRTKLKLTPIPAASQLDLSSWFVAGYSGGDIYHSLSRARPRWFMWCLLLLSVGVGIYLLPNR

O=c1ccn(C2OC(CO)[C@@H](O)[C@]23CCO3)c(=O)[nH]1 (stereo partly drawn) [compound 136]
IC50 [1]: 39.4 µM
IC50 [2]: > 100 µM

COc1nc(N)nc2c1ncn2C1OC(COP(=O)(N[C@@H](C)C(=O)OCC(C)(C)C)Oc2ccccc2)[C@@H](O)[C@]12CCO2 (stereo partly drawn) [compound 121]
EC50 [3]: 9.31 µM
EC90 [3]: 18.5 µM
CC50 [4]: > 20 µM
EC50 [5]: 2.26 µM
CC50 [6]: > 20 µM

CCCCOC(=O)[C@H](C)NP(=O)(OCC1OC(n2cnc3c(OC)nc(N)nc32)[C@@]2(CCO2)[C@@H]1O)Oc1ccccc1 (stereo partly drawn) [compound 127]
EC50 [3]: 3.1 µM
EC90 [3]: 6.45 µM
CC50 [4]: > 20 µM
EC50 [5]: 1.61 µM
CC50 [6]: > 20 µM

COc1nc(N)nc2c1ncn2C1OC(COP(=O)(N[C@@H](C)C(=O)OC2CCCC2)Oc2ccccc2)[C@@H](O)[C@]12CCO2 (stereo partly drawn) [compound 129]
EC50 [3]: 0.67 µM
EC90 [3]: 1.97 µM
CC50 [4]: > 20 µM
EC50 [5]: 2.36 µM
CC50 [6]: > 20 µM

Nc1ccn(C2OC(CO)[C@@H](O)[C@]23CCO3)c(=O)n1 (stereo partly drawn) [compound 140]
IC50 [1]: > 8.48 µM
IC50 [2]: 56.7 µM

COc1nc(N)nc2c1ncn2C1OC(COP(=O)(N[C@@H](C)C(=O)OCc2ccccc2)Oc2ccccc2)[C@@H](O)[C@]12CCO2 (stereo partly drawn) [compound 130]
EC50 ([3]; Hepatitis C virus): 8.65 µM
EC90 ([3]; Hepatitis C virus): 15.1 µM
CC50 at 8 days [7]: > 20 µM
EC50 [5]: 3.84 µM
CC50 [6]: > 20 µM

Nc1ccn(C2OC(CO)[C@@H](O)[C@@]23CCO3)c(=O)n1 (stereo partly drawn) [compound 139]
IC50 [1]: > 100 µM

COc1nc(N)nc2c1ncn2C1OC(COP(=O)(N[C@@H](C)C(=O)OCC(C)(C)C)Oc2ccccc2)[C@@H](O)[C@]12CCO2 (stereo partly drawn) [compound 120]
EC50 [3]: 0.39 µM
EC90 [3]: 0.676 µM
CC50 at 8 days [7]: > 20 µM
EC50 ([5]; Dengue virus, BHK-21, 72 h): 1.88 µM
CC50 [6]: > 20 µM

COc1nc(N)nc2c1ncn2C1OC(COP(=O)(N[C@@H](C)C(=O)OC2CCCC2)Oc2ccccc2)[C@@H](O)[C@]12CCO2 (stereo partly drawn) [compound 128]
EC50 ([3]; Hepatitis C virus): 0.45 µM
EC90 ([3]; Hepatitis C virus): 1.09 µM
CC50 at 8 days [7]: > 20 µM
EC50 ([5]; Dengue virus, BHK-21, 72 h): 2.79 µM
CC50 [6]: > 20 µM

COc1nc(N)nc2c1ncn2C1OC(COP(=O)(N[C@@H](C)C(=O)OC(C)C)Oc2ccccc2)[C@@H](O)[C@]12CCO2 (stereo partly drawn) [compound 118]
EC50 [3]: 1.49 µM
EC90 [3]: 3.44 µM
CC50 at 8 days [7]: > 20 µM
EC50 [5]: 5.06 µM
CC50 [6]: > 20 µM

COc1nc(N)nc2c1ncn2C1OC(COP(=O)(N[C@@H](C)C(=O)OCC(C)C)Oc2ccccc2)[C@@H](O)[C@]12CCO2 (stereo partly drawn) [compound 125]
EC50 [3]: 4.42 µM
EC90 [3]: 8.45 µM
CC50 [4]: > 20 µM
EC50 [5]: 1.98 µM
CC50 [6]: > 20 µM

COc1nc(N)nc2c1ncn2C1OC(COP(=O)(N[C@@H](C)C(=O)OCc2ccccc2)Oc2ccccc2)[C@@H](O)[C@]12CCO2 (stereo partly drawn) [compound 131]
EC50 [3]: 11.7 µM
EC90 [3]: > 20 µM
CC50 [4]: > 20 µM
EC50 [5]: 1.49 µM
CC50 [6]: > 20 µM

COc1nc(N)nc2c1ncn2C1OC(COP(=O)(N[C@@H](C)C(=O)OC(C)C)Oc2ccccc2)[C@@H](O)[C@]12CCO2 (stereo partly drawn) [compound 119]
EC50 [3]: 4.52 µM
EC90 [3]: > 20 µM
CC50 [4]: > 20 µM
EC50 ([5]; Dengue virus, BHK-21, 72 h): 8.64 µM
CC50 [6]: > 20 µM

COc1nc(N)nc2c1ncn2C1OC(COP(=O)(N[C@@H](C)C(=O)OCC(C)(C)C)Oc2cccc3ccccc23)[C@@H](O)[C@]12CCO2 (stereo partly drawn) [compound 123]
EC50 ([3]; Hepatitis C virus): 0.31 µM
EC90 ([3]; Hepatitis C virus): 0.853 µM
CC50 at 8 days [7]: > 20 µM
EC50 ([5]; Dengue virus, BHK-21, 72 h): 1.74 µM
CC50 [6]: > 20 µM

Nc1ccn(C2OC(CO)[C@@H](O)[C@@]23CCCO3)c(=O)n1 (stereo partly drawn) [compound 138]
IC50 [1]: > 100 µM

CCCCOC(=O)[C@H](C)NP(=O)(OCC1OC(n2cnc3c(OC)nc(N)nc32)[C@@]2(CCO2)[C@@H]1O)Oc1ccccc1 (stereo partly drawn) [compound 126]
EC50 [3]: 0.274 µM
EC90 [3]: 0.7 µM
CC50 at 8 days [7]: > 20 µM
EC50 ([5]; Dengue virus, BHK-21, 72 h): 2.36 µM
CC50 [6]: > 20 µM

Nc1ccn(C2OC(CO)[C@@H](O)[C@]23CCCO3)c(=O)n1 (stereo partly drawn) [compound 137]
IC50 [1]: > 45.3 µM
IC50 [2]: > 100 µM

O=c1ccn(C2OC(CO)[C@@H](O)[C@@]23CCCO3)c(=O)[nH]1 (stereo partly drawn) [compound 135]
IC50 [1]: > 100 µM
